Test results taken from ChEMBL document CHEMBL4024722, “Discovery of acylguanidine oseltamivir carboxylate derivatives as potent neuraminidase inhibitors” (Bioorg Med Chem, 2017).

Columns and labels:
[1] = Inhibition of Influenza A virus (A/Puerto Rico/8/1934(H1N1)) neuraminidase using 4-MU-NANA as substrate preincubated for 10 mins followed by substrate addition measured after 1 hr by fluorescence assay
[2] = Inhibition of Influenza A virus (A/Hong Kong/498/97(H3N2)) neuraminidase using 4-MU-NANA as substrate preincubated for 10 mins followed by substrate addition measured after 1 hr by fluorescence assay
[3] = Cytotoxicity against MDCK cells after 72 hrs by Alamar-Blue assay; type: cell-based, Canis lupus familiaris; conditions: dog

CCC(CC)O[C@@H]1C=C(C(=O)O)C[C@H](NC(=N)NC(=O)Cc2ccc(C)cc2)[C@H]1NC(C)=O
IC50 [1]: 29.4 nM
IC50 [2]: 9.5 nM

CCC(CC)O[C@@H]1C=C(C(=O)O)C[C@H](NC(=N)NC(=O)c2cccc(C)c2)[C@H]1NC(C)=O
IC50 [1]: 11.5 nM
IC50 [2]: 19.5 nM

CCC(CC)O[C@@H]1C=C(C(=O)O)C[C@H](NC(=N)NC(=O)Cc2ccc(Br)cc2)[C@H]1NC(C)=O
IC50 [1]: 14.5 nM
IC50 [2]: 8 nM
CC50 at 72 h [3]: > 1000 nM

CCCCC(=O)NC(=N)N[C@H]1CC(C(=O)O)=C[C@@H](OC(CC)CC)[C@@H]1NC(C)=O
IC50 [1]: 37 nM
IC50 [2]: 6 nM

CCC(CC)O[C@@H]1C=C(C(=O)O)C[C@H](NC(=N)NC(=O)c2ccncc2)[C@H]1NC(C)=O
IC50 [1]: 15.2 nM
IC50 [2]: 16.1 nM

CCC(CC)O[C@@H]1C=C(C(=O)O)C[C@H](NC(=N)NC(=O)c2cccc(OC)c2)[C@H]1NC(C)=O
IC50 [1]: 175 nM
IC50 [2]: 533 nM

CCC(CC)O[C@@H]1C=C(C(=O)O)C[C@H](NC(=N)NC(=O)c2ccccc2C)[C@H]1NC(C)=O
IC50 [1]: > 1000 nM
IC50 [2]: > 1000 nM

CCC(CC)O[C@@H]1C=C(C(=O)O)C[C@H](NC(=N)NC(=O)c2ccc([N+](=O)[O-])cc2)[C@H]1NC(C)=O
IC50 [1]: 20.1 nM
IC50 [2]: 14.2 nM
CC50 at 72 h [3]: > 1000 nM

CCC(CC)O[C@@H]1C=C(C(=O)O)C[C@H](NC(=N)NC(=O)c2cc(C)cc(C)c2)[C@H]1NC(C)=O
IC50 [1]: 155 nM
IC50 [2]: 159 nM

CCC(CC)O[C@@H]1C=C(C(=O)O)C[C@H](NC(=N)NC(=O)Cc2ccc3ccccc3c2)[C@H]1NC(C)=O
IC50 [1]: 21.1 nM
IC50 [2]: 7.2 nM
CC50 at 72 h [3]: > 1000 nM

CCC(CC)O[C@@H]1C=C(C(=O)O)C[C@H](NC(=N)NC(=O)CCc2ccccc2)[C@H]1NC(C)=O
IC50 [1]: 30.1 nM
IC50 [2]: 9.4 nM

CCC(CC)O[C@@H]1C=C(C(=O)O)C[C@H](NC(=N)NC(=O)c2ccc(OC)cc2)[C@H]1NC(C)=O
IC50 [1]: 68.6 nM
IC50 [2]: 215 nM

CCC(CC)O[C@@H]1C=C(C(=O)O)C[C@H](NC(=N)NC(=O)c2ccccc2O)[C@H]1NC(C)=O
IC50 [1]: 49.8 nM
IC50 [2]: 185 nM

CCC(CC)O[C@@H]1C=C(C(=O)O)C[C@H](NC(=N)NC(=O)C(C)C)[C@H]1NC(C)=O
IC50 [1]: 38.2 nM
IC50 [2]: 13.7 nM

CCC(CC)O[C@@H]1C=C(C(=O)O)C[C@H](NC(=N)NC(=O)CCc2cccnc2)[C@H]1NC(C)=O
IC50 [1]: 10.2 nM
IC50 [2]: 14.6 nM

CCC(=O)NC(=N)N[C@H]1CC(C(=O)O)=C[C@@H](OC(CC)CC)[C@@H]1NC(C)=O
IC50 [1]: 39.1 nM
IC50 [2]: 11.4 nM
CC50 at 72 h [3]: > 1000 nM

CCC(CC)O[C@@H]1C=C(C(=O)O)C[C@H](NC(=N)NC(=O)c2cccc(C(F)(F)F)c2)[C@H]1NC(C)=O
IC50 [1]: 216 nM
IC50 [2]: 76.1 nM

CCC(CC)O[C@@H]1C=C(C(=O)O)C[C@H](NC(=N)NC(=O)c2ccccc2)[C@H]1NC(C)=O
IC50 [1]: 574 nM
IC50 [2]: 334 nM

CCC(CC)O[C@@H]1C=C(C(=O)O)C[C@H](NC(=N)NC(=O)Cc2ccccc2C)[C@H]1NC(C)=O
IC50 [1]: 86.5 nM
IC50 [2]: 22.8 nM

CCC(CC)O[C@@H]1C=C(C(=O)O)C[C@H](NC(=N)NC(=O)CCc2ccc(OC)c(OC)c2)[C@H]1NC(C)=O
IC50 [1]: 1.43 nM
IC50 [2]: 3.64 nM
CC50 at 72 h [3]: > 1000 nM

C=CCCC(=O)NC(=N)N[C@H]1CC(C(=O)O)=C[C@@H](OC(CC)CC)[C@@H]1NC(C)=O
IC50 [1]: 8.1 nM
IC50 [2]: 5.4 nM
CC50 at 72 h [3]: > 1000 nM

CCC(CC)O[C@@H]1C=C(C(=O)O)C[C@H](NC(=N)NC(=O)c2ccccc2OC)[C@H]1NC(C)=O
IC50 [1]: 53.5 nM
IC50 [2]: 125 nM

CCC(CC)O[C@@H]1C=C(C(=O)O)C[C@H](NC(=N)NC(=O)c2ccccc2C(F)(F)F)[C@H]1NC(C)=O
IC50 [1]: > 1000 nM
IC50 [2]: 911 nM

CCC(CC)O[C@@H]1C=C(C(=O)O)C[C@H](NC(=N)NC(=O)c2ccc(C)cc2)[C@H]1NC(C)=O
IC50 [1]: > 1000 nM
IC50 [2]: > 1000 nM

CCC(CC)O[C@@H]1C=C(C(=O)O)C[C@H](NC(=N)NC(=O)CC(C)C)[C@H]1NC(C)=O
IC50 [1]: 88.3 nM
IC50 [2]: 18.4 nM

CCC(CC)O[C@@H]1C=C(C(=O)O)C[C@H](NC(=N)NC(=O)c2ccccc2Br)[C@H]1NC(C)=O
IC50 [1]: > 1000 nM
IC50 [2]: > 1000 nM

CCCC(=O)NC(=N)N[C@H]1CC(C(=O)O)=C[C@@H](OC(CC)CC)[C@@H]1NC(C)=O
IC50 [1]: 34.8 nM
IC50 [2]: 11.2 nM

CCC(CC)O[C@@H]1C=C(C(=O)O)C[C@H](NC(=N)NC(=O)CCCc2ccccc2)[C@H]1NC(C)=O
IC50 [1]: 64.9 nM
IC50 [2]: 21.4 nM
